Test results as given in patent US20230085307A1, “PYRIDAZINONE COMPOUND AND HERBICIDE” (NISSAN CHEMICAL CORPORATION, priority 2019, published 2023).

Columns and labels:
late watergrass = experiment: Test Example 1: herbicidal activity, application before weed generation under submerged conditions (Table 16, symbol A); assay type: in vivo, late watergrass (Echinochloa oryzicola); settings: amount of applied herbicide 320 g/ha
In short: (§1)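 Alluvial soil was flooded to 4 cm depth, weed seeds were sown mixed and 2.5-leaf rice seedlings were transplanted. On sowing day, the compound's emulsion, diluted in water to a set dose, was applied to the water surface. Plants grew at 25–30 °C and were scored 0–5 after three weeks.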

Japanese bulrush = experiment: Test Example 1: herbicidal activity, application before weed generation under submerged conditions (Table 16, symbol B); assay type: in vivo, Japanese bulrush (Schoenoplectus juncoides); settings: amount of applied herbicide 320 g/ha
In short: as §1

oval-leafed pondweed = experiment: Test Example 1: herbicidal activity, application before weed generation under submerged conditions (Table 16, symbol C); assay type: in vivo, oval-leafed pondweed (Monochoria vaginalis); settings: amount of applied herbicide 320 g/ha
In short: as §1

barnyard grass [1] = experiment: Test Example 3: herbicidal effect by foliage application, Wagner pot (Table 18, symbol H); assay type: in vivo, barnyard grass (Echinochloa crus-galli)
In short: (§2)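 Plants were sown in alluvial soil held under 0.1–0.5 cm standing water and grown 14 days in a greenhouse at 25–30 °C. An emulsifiable formulation, water-diluted to the set dose, was then sprayed onto the foliage, and effects were scored three weeks later using previously defined criteria.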

Chinese sprangletop = experiment: Test Example 3: herbicidal effect by foliage application, Wagner pot (Table 18, symbol D); assay type: in vivo, chinese sprangletop (Leptochloa chinensis)
In short: as §2

rice flat sedge = experiment: Test Example 3: herbicidal effect by foliage application, Wagner pot (Table 18, symbol E); assay type: in vivo, rice flat sedge (Cyperus iria)
In short: as §2

southern crabgrass [2] = experiment: Test Example 4: herbicidal effect by soil treatment (Table 19, symbol F); assay type: in vivo, southern crabgrass (Digitaria ciliaris); settings: amount of applied herbicide 320 g/ha
In short: (§3)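 Step 1: sow seeds in sterilized diluvial soil, cover ~1.5 cm. Step 2: spray diluted emulsion onto soil surface at predetermined rate. Step 3: greenhouse, 25–30° C, three weeks. Step 4: grade effect on each plant by earlier criteria.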

green foxtail [3] = experiment: Test Example 4: herbicidal effect by soil treatment (Table 19, symbol G); assay type: in vivo, green foxtail (Setaria viridis); settings: amount of applied herbicide 320 g/ha
In short: as §3

barnyard grass [4] = experiment: Test Example 4: herbicidal effect by soil treatment (Table 19, symbol H); assay type: in vivo, barnyard grass (Echinochloa crus-galli); settings: amount of applied herbicide 320 g/ha
In short: as §3

wild oat [5] = experiment: Test Example 4: herbicidal effect by soil treatment (Table 19, symbol I); assay type: in vivo, wild oat (Avena fatua); settings: amount of applied herbicide 320 g/ha
In short: as §3

blackgrass [6] = experiment: Test Example 4: herbicidal effect by soil treatment (Table 19, symbol J); assay type: in vivo, blackgrass (Alopecurus myosuroides); settings: amount of applied herbicide 320 g/ha
In short: as §3

Italian ryegrass [7] = experiment: Test Example 4: herbicidal effect by soil treatment (Table 19, symbol K); assay type: in vivo, Italian ryegrass (Lolium multiflorum); settings: amount of applied herbicide 320 g/ha
In short: as §3

windgrass [8] = experiment: Test Example 4: herbicidal effect by soil treatment (Table 19, symbol L); assay type: in vivo, windgrass (Apera spica-venti); settings: amount of applied herbicide 320 g/ha
In short: as §3

velvetleaf [9] = experiment: Test Example 4: herbicidal effect by soil treatment (Table 19, symbol M); assay type: in vivo, velvetleaf (Abutilon theophrasti); settings: amount of applied herbicide 320 g/ha
In short: as §3

redroot pigweed [10] = experiment: Test Example 4: herbicidal effect by soil treatment (Table 19, symbol N); assay type: in vivo, redroot pigweed (Amaranthus retroflexus); settings: amount of applied herbicide 320 g/ha
In short: as §3

lambsquarters [11] = experiment: Test Example 4: herbicidal effect by soil treatment (Table 19, symbol O); assay type: in vivo, lambsquarters (Chenopodium album); settings: amount of applied herbicide 320 g/ha
In short: as §3

chickweed [12] = experiment: Test Example 4: herbicidal effect by soil treatment (Table 19, symbol P); assay type: in vivo, common chickweed (Stellaria media); settings: amount of applied herbicide 320 g/ha
In short: as §3

false cleavers [13] = experiment: Test Example 4: herbicidal effect by soil treatment (Table 19, symbol Q); assay type: in vivo, false cleavers (Galium spurium); settings: amount of applied herbicide 320 g/ha
In short: as §3

persian speedwell [14] = experiment: Test Example 4: herbicidal effect by soil treatment (Table 19, symbol R); assay type: in vivo, Persian speedwell (Veronica persica); settings: amount of applied herbicide 320 g/ha
In short: as §3

southern crabgrass [15] = experiment: Test Example 5: herbicidal effect by foliage application, plastic box (Table 20, symbol F); assay type: in vivo, southern crabgrass (Digitaria ciliaris); settings: foliage application, 320 g/ha
In short: (§4)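 Foliar spray test: emulsion formulation diluted in water to a set application rate, sprayed onto 14-day-old plants raised in diluvial soil at 25° C to 30° C under glass. Both herbicidal effect and crop effect rated visually three weeks later.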

green foxtail [16] = experiment: Test Example 5: herbicidal effect by foliage application, plastic box (Table 20, symbol G); assay type: in vivo, green foxtail (Setaria viridis); settings: foliage application, 320 g/ha
In short: as §4

barnyard grass [17] = experiment: Test Example 5: herbicidal effect by foliage application, plastic box (Table 20, symbol H); assay type: in vivo, barnyard grass (Echinochloa crus-galli); settings: foliage application, 320 g/ha
In short: as §4

wild oat [18] = experiment: Test Example 5: herbicidal effect by foliage application, plastic box (Table 20, symbol I); assay type: in vivo, wild oat (Avena fatua); settings: foliage application, 320 g/ha
In short: as §4

blackgrass [19] = experiment: Test Example 5: herbicidal effect by foliage application, plastic box (Table 20, symbol J); assay type: in vivo, blackgrass (Alopecurus myosuroides); settings: foliage application, 320 g/ha
In short: as §4

Italian ryegrass [20] = experiment: Test Example 5: herbicidal effect by foliage application, plastic box (Table 20, symbol K); assay type: in vivo, Italian ryegrass (Lolium multiflorum); settings: foliage application, 320 g/ha
In short: as §4

windgrass [21] = experiment: Test Example 5: herbicidal effect by foliage application, plastic box (Table 20, symbol L); assay type: in vivo, windgrass (Apera spica-venti); settings: foliage application, 320 g/ha
In short: as §4

velvetleaf [22] = experiment: Test Example 5: herbicidal effect by foliage application, plastic box (Table 20, symbol M); assay type: in vivo, velvetleaf (Abutilon theophrasti); settings: foliage application, 320 g/ha
In short: as §4

redroot pigweed [23] = experiment: Test Example 5: herbicidal effect by foliage application, plastic box (Table 20, symbol N); assay type: in vivo, redroot pigweed (Amaranthus retroflexus); settings: foliage application, 320 g/ha
In short: as §4

lambsquarters [24] = experiment: Test Example 5: herbicidal effect by foliage application, plastic box (Table 20, symbol O); assay type: in vivo, lambsquarters (Chenopodium album); settings: foliage application, 320 g/ha
In short: as §4

chickweed [25] = experiment: Test Example 5: herbicidal effect by foliage application, plastic box (Table 20, symbol P); assay type: in vivo, common chickweed (Stellaria media); settings: foliage application, 320 g/ha
In short: as §4

false cleavers [26] = experiment: Test Example 5: herbicidal effect by foliage application, plastic box (Table 20, symbol Q); assay type: in vivo, false cleavers (Galium spurium); settings: foliage application, 320 g/ha
In short: as §4

persian speedwell [27] = experiment: Test Example 5: herbicidal effect by foliage application, plastic box (Table 20, symbol R); assay type: in vivo, Persian speedwell (Veronica persica); settings: foliage application, 320 g/ha
In short: as §4

[28] = amount of applied herbicide 320 g/ha
[29] = evaluated 3 weeks after application

Row | Structure (SMILES) | Herbicidal effect, A: late watergrass (late watergrass) | Herbicidal effect, B: Japanese bulrush (Japanese bulrush) | Herbicidal effect, C: oval-leafed pondweed (oval-leafed pondweed) | F: southern crabgrass, herbicidal effect grade (southern crabgrass [2]) | G: green foxtail, herbicidal effect grade (green foxtail [3]) | H: barnyard grass, herbicidal effect grade (barnyard grass [4]) | I: wild oat, herbicidal effect grade (wild oat [5]) | J: blackgrass, herbicidal effect grade (blackgrass [6]) | K: Italian ryegrass, herbicidal effect grade (Italian ryegrass [7]) | L: windgrass, herbicidal effect grade (windgrass [8]) | M: velvetleaf, herbicidal effect grade (velvetleaf [9]) | N: redroot pigweed, herbicidal effect grade (redroot pigweed [10]) | O: lambsquarters, herbicidal effect grade (lambsquarters [11]) | P: chickweed, herbicidal effect grade (chickweed [12]) | Q: false cleavers, herbicidal effect grade (false cleavers [13]) | R: persian speedwell, herbicidal effect grade (persian speedwell [14]) | also measured
1 | COc1ccc2c(-c3c(O)c(C)nn(C)c3=O)c(-c3ccccc3OC)oc2c1 [10-001] | 0 (Herbicidal rate of 5% or less (almost no effect)) | 0 (Herbicidal rate of 5% or less (almost no effect)) | 3 (Herbicidal rate of 40% or more and less than 70%) | 0 (Herbicidal rate of 5% or less (almost no effect)) | 0 (Herbicidal rate of 5% or less (almost no effect)) | 0 (Herbicidal rate of 5% or less (almost no effect)) | 0 (Herbicidal rate of 5% or less (almost no effect)) | 0 (Herbicidal rate of 5% or less (almost no effect)) | 0 (Herbicidal rate of 5% or less (almost no effect)) | 0 (Herbicidal rate of 5% or less (almost no effect)) | 0 (Herbicidal rate of 5% or less (almost no effect)) | 0 (Herbicidal rate of 5% or less (almost no effect)) | 0 (Herbicidal rate of 5% or less (almost no effect)) | 0 (Herbicidal rate of 5% or less (almost no effect)) | 0 (Herbicidal rate of 5% or less (almost no effect)) | 5 (Herbicidal rate of 90% or more (almost completely withered)) | Herbicidal effect on H (barnyard grass), foliage application (barnyard grass [1]; [28]): 3 (Herbicidal rate of 40% or more and less than 70%); Herbicidal effect on D (Chinese sprangletop), foliage application (Chinese sprangletop; [28]): 0 (Herbicidal rate of 5% or less (almost no effect)); Herbicidal effect on E (rice flat sedge), foliage application (rice flat sedge; [28]): 2 (Herbicidal rate of 20% or more and less than 40%); F (southern crabgrass) herbicidal effect grade (southern crabgrass [15]; [29]): 2 (Herbicidal rate of 20% or more and less than 40%); G (green foxtail) herbicidal effect grade (green foxtail [16]; [29]): 3 (Herbicidal rate of 40% or more and less than 70%); H (barnyard grass) herbicidal effect grade (barnyard grass [17]; [29]): 3 (Herbicidal rate of 40% or more and less than 70%); I (wild oat) herbicidal effect grade (wild oat [18]; [29]): 0 (Herbicidal rate of 5% or less (almost no effect)); J (blackgrass) herbicidal effect grade (blackgrass [19]; [29]): 0 (Herbicidal rate of 5% or less (almost no effect)); K (Italian ryegrass) herbicidal effect grade (Italian ryegrass [20]; [29]): 0 (Herbicidal rate of 5% or less (almost no effect)); L (windgrass) herbicidal effect grade (windgrass [21]; [29]): 3 (Herbicidal rate of 40% or more and less than 70%); M (velvetleaf) herbicidal effect grade (velvetleaf [22]; [29]): 3 (Herbicidal rate of 40% or more and less than 70%); N (redroot pigweed) herbicidal effect grade (redroot pigweed [23]; [29]): 3 (Herbicidal rate of 40% or more and less than 70%); O (lambsquarters) herbicidal effect grade (lambsquarters [24]; [29]): 4 (Herbicidal rate of 70% or more and less than 90%); P (chickweed) herbicidal effect grade (chickweed [25]; [29]): 5 (Herbicidal rate of 90% or more (almost completely withered)); Q (false cleavers) herbicidal effect grade (false cleavers [26]; [29]): 4 (Herbicidal rate of 70% or more and less than 90%); R (persian speedwell) herbicidal effect grade (persian speedwell [27]; [29]): 5 (Herbicidal rate of 90% or more (almost completely withered))
2 | COc1ccc2c(-c3c(O)c(C)nn(C)c3=O)c(-c3ccc(SC)cc3)sc2c1 [3-074] | 0 (Herbicidal rate of 5% or less (almost no effect)) | 2 (Herbicidal rate of 20% or more and less than 40%) | 0 (Herbicidal rate of 5% or less (almost no effect)) | 0 (Herbicidal rate of 5% or less (almost no effect)) | 0 (Herbicidal rate of 5% or less (almost no effect)) | 0 (Herbicidal rate of 5% or less (almost no effect)) | 0 (Herbicidal rate of 5% or less (almost no effect)) | 0 (Herbicidal rate of 5% or less (almost no effect)) | 0 (Herbicidal rate of 5% or less (almost no effect)) | 0 (Herbicidal rate of 5% or less (almost no effect)) | 0 (Herbicidal rate of 5% or less (almost no effect)) | 5 (Herbicidal rate of 90% or more (almost completely withered)) | 5 (Herbicidal rate of 90% or more (almost completely withered)) | 3 (Herbicidal rate of 40% or more and less than 70%) | 0 (Herbicidal rate of 5% or less (almost no effect)) | 5 (Herbicidal rate of 90% or more (almost completely withered)) | herbicidal effect on barnyard grass (H) (barnyard grass [1]; 320 g/ha): 4 (Herbicidal rate of 70% or more and less than 90%); herbicidal effect on Chinese sprangletop (D) (Chinese sprangletop; 320 g/ha): 3 (Herbicidal rate of 40% or more and less than 70%); herbicidal effect on rice flat sedge (E) (rice flat sedge; 320 g/ha): 5 (Herbicidal rate of 90% or more (almost completely withered)); F: southern crabgrass, herbicidal effect grade (southern crabgrass [15]; three weeks after application): 2 (Herbicidal rate of 20% or more and less than 40%); G: green foxtail, herbicidal effect grade (green foxtail [16]; three weeks after application): 3 (Herbicidal rate of 40% or more and less than 70%); H: barnyard grass, herbicidal effect grade (barnyard grass [17]; three weeks after application): 0 (Herbicidal rate of 5% or less (almost no effect)); I: wild oat, herbicidal effect grade (wild oat [18]; three weeks after application): 0 (Herbicidal rate of 5% or less (almost no effect)); J: blackgrass, herbicidal effect grade (blackgrass [19]; three weeks after application): 0 (Herbicidal rate of 5% or less (almost no effect)); K: Italian ryegrass, herbicidal effect grade (Italian ryegrass [20]; three weeks after application): 0 (Herbicidal rate of 5% or less (almost no effect)); L: windgrass, herbicidal effect grade (windgrass [21]; three weeks after application): 3 (Herbicidal rate of 40% or more and less than 70%); M: velvetleaf, herbicidal effect grade (velvetleaf [22]; three weeks after application): 4 (Herbicidal rate of 70% or more and less than 90%); N: redroot pigweed, herbicidal effect grade (redroot pigweed [23]; three weeks after application): 5 (Herbicidal rate of 90% or more (almost completely withered)); O: lambsquarters, herbicidal effect grade (lambsquarters [24]; three weeks after application): 5 (Herbicidal rate of 90% or more (almost completely withered)); P: chickweed, herbicidal effect grade (chickweed [25]; three weeks after application): 5 (Herbicidal rate of 90% or more (almost completely withered)); Q: false cleavers, herbicidal effect grade (false cleavers [26]; three weeks after application): 5 (Herbicidal rate of 90% or more (almost completely withered)); R: persian speedwell, herbicidal effect grade (persian speedwell [27]; three weeks after application): 5 (Herbicidal rate of 90% or more (almost completely withered))
